The supplement of paper PMC11061612

Tests used:
Assay in all cases: combination Emax (second highest fraction inhibited in the dose matrix, 72 h); higher = more inhibition; extreme values may be limits of the assay
[1] = system: SW684 (Other Solid Carcinomas)
Procedure, shortened: (§1)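 Bliss excess equals the observed combination effect minus the expected value EA + EB − EA·EB, where EA and EB are the effects of each agent alone. Combination Emax is the second-highest inhibition within the matrix. Inhibition was scaled from CellTiter-Glo 2.0 luminescence, with 0 set by vehicle wells and 1 by blank wells, after 72 hours of two-drug dosing of cells plated in 1536-well plates.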

[2] = system: LAMA-84 (Chronic Myelogenous Leukemia)
Procedure, shortened: as §1

[3] = system: NCI-H196 (Small Cell Lung Carcinoma)
Procedure, shortened: as §1

[4] = system: NCI-H810 (Non-Small Cell Lung Carcinoma)
Procedure, shortened: as §1

[5] = system: SK-MM-2 (Plasma Cell Myeloma)
Procedure, shortened: as §1

[6] = system: PANC-02-03 (Pancreatic Carcinoma)
Procedure, shortened: as §1

[7] = system: NKM-1 (Acute Myeloid Leukemia)
Procedure, shortened: as §1

KYM-1 (Rhabdomyosarcoma) = system: KYM-1 (Rhabdomyosarcoma)
Procedure, shortened: as §1

[8] = system: RPMI-8866 (Chronic Myelogenous Leukemia)
Procedure, shortened: as §1

[9] = system: FLO-1 (Esophageal Adenocarcinoma)
Procedure, shortened: as §1

[10] = system: RL95-2 (Endometrial Carcinoma)
Procedure, shortened: as §1

[11] = system: NCI-H1623 (Lung Adenocarcinoma)
Procedure, shortened: as §1

[12] = system: SNU-175 (Colorectal Carcinoma)
Procedure, shortened: as §1

ES-2 (Ovarian Carcinoma) = system: ES-2 (Ovarian Carcinoma)
Procedure, shortened: as §1

[13] = system: OCI-AML5 (Acute Myeloid Leukemia)
Procedure, shortened: as §1

[14] = system: HTC-C3 (Thyroid Gland Carcinoma)
Procedure, shortened: as §1

[15] = system: JHH-1 (Hepatocellular Carcinoma)
Procedure, shortened: as §1

HuO-3N1 (Osteosarcoma) = system: HuO-3N1 (Osteosarcoma)
Procedure, shortened: as §1

[16] = system: OVTOKO (Ovarian Carcinoma)
Procedure, shortened: as §1

[17] = system: PC-14 (Lung Adenocarcinoma)
Procedure, shortened: as §1

| Structure (SMILES) | combination Emax [1] | combination Emax [2] | combination Emax [3] | combination Emax [4] | combination Emax [5] | combination Emax [6] | combination Emax [7] | combination Emax (KYM-1 (Rhabdomyosarcoma)) | combination Emax [8] | combination Emax [9] | combination Emax [10] | combination Emax [11] | combination Emax [12] | combination Emax (ES-2 (Ovarian Carcinoma)) | combination Emax [13] | combination Emax [14] | combination Emax [15] | combination Emax (HuO-3N1 (Osteosarcoma)) | combination Emax [16] | combination Emax [17] |
| --- | --- | --- | --- | --- | --- | --- | --- | --- | --- | --- | --- | --- | --- | --- | --- | --- | --- | --- | --- | --- |
| COc1nnc2ccc(N3CCC(c4ccc(OCCN5CCN(C)C(=O)[C@H]5C)cc4)CC3)nn12 [AZD5153] + CCN(CCO)CCCOc1ccc2c(Nc3cc(CC(=O)Nc4cccc(F)c4)[nH]n3)ncnc2c1 [AZD2811] (first compound max 1 µM, 7x7, partner max 1 µM) | 0.502 | 0.892 | 0.314 | 0.694 | 0.908 | 0.592 | 0.922 | 0.85 | 0.872 | 0.565 | 0.524 | 0.488 | 0.83 | 0.618 | 0.985 | 0.818 | 0.446 | 0.421 | 0.539 | 0.5 |
| C[C@@H](c1ccc2nccn2c1)n1nnc2ncc(-c3cnn(C)c3)nc21 [Savolitinib] + CC1(C)CCC(CN2CCN(c3ccc(C(=O)NS(=O)(=O)c4ccc(NCC5CCOCC5)c([N+](=O)[O-])c4)c(Oc4cnc5[nH]ccc5c4)c3)CC2)=C(c2ccc(Cl)cc2)C1 [Venetoclax] (first compound max 1 µM, 7x7, partner max 1 µM) | 0.231 | 0.172 | 0.128 | 0.194 | 1 | 0.157 | 0.545 | 0.185 | 0.0738 | 0.2 | 0.085 | 0.173 | 0.119 | 0.137 | 0.883 | 0.127 | 0.114 | 0.181 | 0.199 | 0.177 |
| Cc1c2c(nn1C)CSCc1cc(n(C)n1)CSc1cc(c3ccccc3c1)OCCCc1c(C(=O)O)n(C)c3c-2c(Cl)ccc13 [AZD5991] + C[C@@H](Nc1cc(F)cc(F)c1)c1cc(C(=O)N(C)C)cc2c(=O)cc(N3CCOCC3)oc12 [AZD8186] (first compound max 1 µM, 7x7, partner max 3 µM) | 0.454 | 0.12 | 0.282 | 0.3 | 0.271 | 0.232 | 1 | 0.497 | 0.592 | 0.48 | 0.95 | 0.986 | 0.723 | 0.264 | 1 | 0.277 | 0.462 | 0.893 | 0.605 | 0.255 |
| CC1(C)CCC(CN2CCN(c3ccc(C(=O)NS(=O)(=O)c4ccc(NCC5CCOCC5)c([N+](=O)[O-])c4)c(Oc4cnc5[nH]ccc5c4)c3)CC2)=C(c2ccc(Cl)cc2)C1 [Venetoclax] + C[C@@H](Nc1cc(F)cc(F)c1)c1cc(C(=O)N(C)C)cc2c(=O)cc(N3CCOCC3)oc12 [AZD8186] (first compound max 1 µM, 7x7, partner max 3 µM) | 0.315 | 0.313 | 0.218 | 0.0592 | 1 | 0.147 | 1 | 0.162 | 0.594 | 0.543 | 0.106 | 0.378 | 0.171 | 0.159 | 1 | 0.149 | 0.172 | 0.269 | 0.521 | 0.175 |
| CN(CCO)CC[C@H](CSc1ccccc1)Nc1ccc(S(=O)(=O)NC(=O)c2ccc(N3CCC([C@@H](O)c4ccccc4-c4ccc(Cl)cc4)CC3)cc2)cc1S(=O)(=O)C(F)(F)F [AZD4320] + C=CCn1c(=O)c2cnc(Nc3ccc(N4CCN(C)CC4)cc3)nc2n1-c1cccc(C(C)(C)O)n1 [AZD1775] (first compound max 1 µM, partner max 1 µM) | 0.381 | 1 | 0.671 | 0.954 | 1 | 0.585 | 1 | 0.617 | 1 | 0.977 | 0.53 | 0.608 | 0.717 | 0.722 | 1 | 0.742 | 0.918 | 0.349 | 0.621 | 0.99 |
| NC1(C(=O)N[C@@H](CCO)c2ccc(Cl)cc2)CCN(c2ncnc3[nH]ccc23)CC1 [Capivasertib] + CC(C)n1c(=O)n(C)c2cnc3cc(F)c(-c4ccc(OCCCN5CCCCC5)nc4)cc3c21 [AZD1390] (first compound max 10 µM, 7x7, partner max 0.3 µM) | 0.536 | 0.328 | 0.267 | 0.166 | 0.243 | 0.192 | 0.459 | 0.52 | 0.402 | 0.346 | 0.823 | 0.477 | 0.269 | 0.257 | 0.22 | 0.308 | 0.169 | 0.46 | 0.516 | 0.392 |
| CC1(C)CCC(CN2CCN(c3ccc(C(=O)NS(=O)(=O)c4ccc(NCC5CCOCC5)c([N+](=O)[O-])c4)c(Oc4cnc5[nH]ccc5c4)c3)CC2)=C(c2ccc(Cl)cc2)C1 [Venetoclax] + C1CN(CCC1(C(=O)N[C@@H](CCO)C2=CC=C(C=C2)Cl)N)C3=NC=NC4=C3C=CN4 [Capivasertib] (first compound max 1 µM, 7x7, partner max 3 µM) | 0.392 | 0.371 | 0.198 | 0.113 | 1 | 0.189 | 1 | 0.0721 | 0.292 | 0.192 | 0.494 | 0.314 | 0.162 | 0.14 | 0.958 | 0.163 | 0.115 | 0.242 | 0.462 | 0.328 |
| CCN(CCO)CCCOc1ccc2c(Nc3cc(CC(=O)Nc4cccc(F)c4)[nH]n3)ncnc2c1 [AZD2811] + O=C(c1cc(Cc2n[nH]c(=O)c3ccccc23)ccc1F)N1CCN(C(=O)C2CC2)CC1 [Olaparib] (first compound max 1 µM, 7x7, partner max 10 µM) | 0.265 | 0.488 | 0.12 | 0.646 | 0.232 | 0.307 | 0.723 | 0.402 | 0.69 | 0.377 | 0.73 | 0.442 | 0.611 | 0.192 | 0.966 | 0.248 | 0.161 | 0.178 | 0.223 | 0.303 |
| C[C@@H](c1ccc2nccn2c1)n1nnc2ncc(-c3cnn(C)c3)nc21 [Savolitinib] + Cc1c2c(nn1C)CSCc1cc(n(C)n1)CSc1cc(c3ccccc3c1)OCCCc1c(C(=O)O)n(C)c3c-2c(Cl)ccc13 [AZD5991] (first compound max 1 µM, 7x7, partner max 1 µM) | 0.161 | 0.234 | 0.173 | 0.255 | 0.131 | 0.13 | 0.976 | 0.43 | 0.108 | 0.294 | 0.577 | 0.802 | 0.426 | 0.176 | 0.137 | 0.182 | 0.208 | 0.35 | 0.199 | 0.148 |
| CN(C)CCCOc1ccc(-c2ccc3ncc4c(c3c2)n(C2CCOCC2)c(=O)n4C)cn1 [AZD0156] + C=CCn1c(=O)c2cnc(Nc3ccc(N4CCN(C)CC4)cc3)nc2n1-c1cccc(C(C)(C)O)n1 [AZD1775] (first compound max 1 µM, partner max 1 µM) | 0.107 | 0.942 | 0.478 | 0.889 | 0.705 | 0.672 | 0.853 | 0.355 | 0.965 | 0.805 | 0.429 | 0.311 | 0.405 | 0.616 | 0.95 | 0.351 | 0.463 | 0.183 | 0.542 | 0.866 |
| C=CCn1c(=O)c2cnc(Nc3ccc(N4CCN(C)CC4)cc3)nc2n1-c1cccc(C(C)(C)O)n1 [AZD1775] + C1CN(CCC1(C(=O)N[C@@H](CCO)C2=CC=C(C=C2)Cl)N)C3=NC=NC4=C3C=CN4 [Capivasertib] (first compound max 3 µM, partner max 3 µM) | 0.467 | 0.939 | 0.578 | 0.873 | 0.501 | 0.605 | 0.954 | 0.767 | 0.964 | 0.921 | 0.963 | 0.597 | 0.917 | 0.817 | 0.893 | 0.642 | 0.691 | 0.633 | 0.594 | 0.859 |
| Cn1cnc2c(F)c(Nc3ccc(Br)cc3Cl)c(C(=O)NOCCO)cc21 [Selumetinib] + CC(C)n1c(=O)n(C)c2cnc3cc(F)c(-c4ccc(OCCCN5CCCCC5)nc4)cc3c21 [AZD1390] (first compound max 10 µM, 7x7, partner max 0.3 µM) | 0.152 | 0.926 | 0.0904 | 0.304 | 0.174 | 0.414 | 0.504 | 0.141 | 0.193 | 0.424 | 0.372 | 0.276 | 0.27 | 0.377 | 0.9 | 0.591 | 0.252 | 0.129 | 0.185 | 0.326 |
